Measured values taken from ChEMBL document CHEMBL1133922, “Evolution of anti-HIV drug candidates. Part 2: Diaryltriazine (DATA) analogues” (Bioorg Med Chem Lett, 2001).

How the values were obtained:
[1] = test system: Human immunodeficiency virus 1; assay: Inhibitory activity against 188L strain of HIV-1 in MT-4 cell was determined; type: functional, organism-based; conditions: Human immunodeficiency virus 1, MT4
[2] = test system: Human immunodeficiency virus 1; assay: Inhibitory activity against 103N strain of HIV-I in MT-4 cell was determined; type: functional, organism-based; conditions: Human immunodeficiency virus 1, MT4
[3] = test system: Human immunodeficiency virus 1; assay: Inhibitory activity against 181C strain of HIV-I in MT-4 cell was determined; type: functional, organism-based; conditions: Human immunodeficiency virus 1, MT4
[4] = test system: Human immunodeficiency virus 1; assay: Inhibitory activity against 100I strain of HIV-I in MT-4 cell was determined; type: functional, organism-based; conditions: Human immunodeficiency virus 1, MT4
[5] = test system: Human immunodeficiency virus 1; assay: Inhibitory activity against LAI strain of HIV-I in MT-4 cell was determined; type: functional, organism-based; conditions: Human immunodeficiency virus 1, MT4
MT4 [6] = assay: Inhibitory activity against 100I strain and 103N strain of HIV-I in MT-4 cell was determined; type: functional, cell-based; conditions: Homo sapiens
MT4 [7] = assay: Inhibitory activity against 103N strain and 181C strain of HIV-I in MT-4 cell was determined; type: functional, cell-based; conditions: Homo sapiens
MT4 [8] = assay: Inhibitory activity against LAI strain of HIV-I in MT-4 cell was determined; Not determined; type: functional, cell-based; conditions: Homo sapiens

| SMILES | IC50 [1] [µM] | IC50 [2] [µM] | IC50 [3] [µM] | IC50 [4] [µM] | IC50 [5] [µM] | IC50 (MT4 [6]) [µM] | IC50 (MT4 [7]) [µM] | IC50 (MT4 [8]) [µM] |
| --- | --- | --- | --- | --- | --- | --- | --- | --- |
| N#Cc1ccc(Nc2nc(N)nc(Cc3c(Cl)cccc3Cl)n2)cc1 | 0.316 | 0.04 | 0.2 | 0.398 | 0.0063 |  |  |  |
| Cc1cc(C#N)cc(C)c1Oc1ncnc(Nc2ccc(C#N)cc2)n1 | 0.251 | 0.02 | 0.501 | 1 | 0.004 | 3.98 | 0.398 |  |
| Cc1cc(C)c(Sc2ncnc(Nc3ccc(C#N)cc3)n2)c(C)c1 | 0.02 | 0.003 | 0.013 | 0.032 | 0.002 | > 10 |  |  |
| N#Cc1ccc(Nc2nc(N)nc(Oc3c(F)cc(F)cc3F)n2)cc1 | 8.95 | 0.087 | 3.65 | 0.216 | 0.051 |  |  |  |
| Cc1cc(Br)cc(Cl)c1Oc1nc(N)nc(Nc2ccc(C#N)cc2)n1 | 0.103 | 0.006 | 0.035 | 0.059 | 0.0021 |  |  |  |
| CC(=N)Nc1nc(Cc2c(Cl)cccc2Cl)nc(Nc2ccc(C#N)cc2)n1 | 0.358 | 0.04 | 0.21 | 0.611 | 0.0027 |  |  |  |
| CNc1nc(Cc2c(Cl)cccc2Cl)nc(Nc2ccc(C#N)cc2)n1 | 1.02 | 0.137 | 0.44 | 1.16 | 0.007 |  |  |  |
| COc1cccc(OC)c1Oc1nc(N)nc(Nc2ccc(C#N)cc2)n1 |  | 0.526 | 1.56 |  | 0.031 |  |  |  |
| CCOC(=O)Nc1nc(Cc2c(Cl)cccc2Cl)nc(Nc2ccc(C#N)cc2)n1 | 1.73 | 0.548 | 1.32 | 1.64 | 0.012 |  |  |  |
| CCONc1nc(Cc2c(Cl)cccc2Cl)nc(Nc2ccc(C#N)cc2)n1 |  |  |  |  |  |  |  | 0.0246 |
| CCCONc1nc(Cc2c(Cl)cccc2Cl)nc(Nc2ccc(C#N)cc2)n1 |  |  |  |  |  |  |  | 100 |
| Cc1cc(C)c(Sc2nc(N)nc(Nc3ccc(C#N)cc3)n2)c(C)c1 | 0.036 | 0.006 | 0.019 | 0.064 | 0.0029 |  |  |  |
| N#Cc1ccc(Nc2nc(N)nc(Cc3ccccc3Cl)n2)cc1 | 7.37 | 0.4 | 2.57 | 2.65 | 0.13 |  |  |  |
| N#Cc1ccc(Nc2nc(N)nc(Cc3ccc(Cl)cc3Cl)n2)cc1 | 2.32 | 0.274 | 0.791 | 2.1 | 0.014 |  |  |  |
| CC(C)NC(=O)Nc1nc(Cc2c(Cl)cccc2Cl)nc(Nc2ccc(C#N)cc2)n1 |  | 7.55 | 43.8 | 35.1 | 0.379 |  |  |  |
| CN(C)CCOc1nc(Cc2c(Cl)cccc2Cl)nc(Nc2ccc(C#N)cc2)n1 | 0.315 | 0.037 | 1.39 | 1.08 | 0.0055 |  |  |  |
| N#Cc1ccc(Nc2nc(N)nc(Oc3c(Cl)cccc3Cl)n2)cc1 | 4.57 | 0.082 | 0.279 | 0.384 | 0.0031 |  |  |  |
| N#Cc1ccc(Nc2nc(O)nc(Cc3c(Cl)cccc3Cl)n2)cc1 |  | 0.607 | 2.12 |  | 0.16 |  |  |  |
| CON(C)c1nc(Cc2c(Cl)cccc2Cl)nc(Nc2ccc(C#N)cc2)n1 |  |  |  |  | 0.086 |  |  |  |
| Cc1cc(N)cc(C)c1Oc1nc(N)nc(Nc2ccc(C#N)cc2)n1 |  | > 100 | > 100 |  | 7.83 |  |  |  |
| Cc1cc(I)cc(C)c1Oc1nc(N)nc(Nc2ccc(C#N)cc2)n1 | 0.075 | 0.01 | 0.068 | 0.204 | 0.03 |  |  |  |
| N#Cc1ccc(Nc2nc(Cl)nc(Cc3c(Cl)cccc3Cl)n2)cc1 |  | 10 | 10 |  | 1.08 |  |  |  |
| N#Cc1ccc(Nc2nc(N)nc(Oc3c(Cl)cc(F)cc3Cl)n2)cc1 | 1.02 | 0.065 | 0.259 | 0.706 | 0.0073 |  |  |  |
| CN(C)/C=N\c1nc(Cc2c(Cl)cccc2Cl)nc(Nc2ccc(C#N)cc2)n1 | 0.251 | 0.016 | 0.316 | 0.631 | 0.0025 |  |  |  |
| Cc1cc([N+](=O)[O-])cc(C)c1Oc1nc(N)nc(Nc2ccc(C#N)cc2)n1 | 0.123 | 0.008 | 0.057 | 0.33 | 0.002 |  |  |  |
| CC(=O)Nc1nc(Cc2c(Cl)cccc2Cl)nc(Nc2ccc(C#N)cc2)n1 | 0.158 | 0.04 | 100 | 100 | 0.016 |  |  |  |
| N#Cc1ccc(Nc2nc(Cc3c(Cl)cccc3Cl)nc(NN)n2)cc1 | 7.32 | 1.74 | 5.83 | 5.83 | 0.61 |  |  |  |

| SMILES | IC50 [1] [µM] | IC50 [2] [µM] | IC50 [3] [µM] | IC50 [4] [µM] | IC50 [5] [µM] | IC50 (MT4 [6]) [µM] | IC50 (MT4 [7]) [µM] | IC50 (MT4 [8]) [µM] |
| --- | --- | --- | --- | --- | --- | --- | --- | --- |
| N#Cc1ccc(Nc2nc(Cc3c(Cl)cccc3Cl)nc(NO)n2)cc1 | 0.026 | 0.013 | 0.038 | 0.107 | 0.0024 |  |  |  |
| N#Cc1ccc(Nc2nc(F)nc(Cc3c(Cl)cccc3Cl)n2)cc1 |  | 52.6 | 100 |  | 5.26 |  |  |  |
| Cc1cccc(C)c1Cc1nc(N)nc(Nc2ccc(C#N)cc2)n1 | 0.105 | 0.042 | 0.225 | 1.46 | 0.0012 |  |  |  |
| N#Cc1ccc(Nc2nc(S)nc(Cc3c(Cl)cccc3Cl)n2)cc1 |  | 0.723 | 1.61 |  | 0.094 |  |  |  |
| CN(C)CCNc1nc(Cc2c(Cl)cccc2Cl)nc(Nc2ccc(C#N)cc2)n1 | 0.297 | 0.021 | 0.379 | 1.26 | 0.005 |  |  |  |
| Cc1ccc(C)c(Cc2nc(N)nc(Nc3ccc(C#N)cc3)n2)c1 | 1.03 | 0.273 | 1.57 | 5.86 | 0.0031 |  |  |  |
| COc1nc(Cc2c(Cl)cccc2Cl)nc(Nc2ccc(C#N)cc2)n1 | 1.55 | 0.231 | 1.45 | 1.15 | 0.012 |  |  |  |
| N#Cc1ccc(Nc2nc(Cc3c(Cl)cccc3Cl)nc(N=[N+]=[N-])n2)cc1 |  | 0.224 | 1.14 |  | 0.014 |  |  |  |
| Cc1cc(Br)c(Oc2ncnc(Nc3ccc(C#N)cc3)n2)c(Br)c1 | 0.398 | 0.006 | 0.04 | 0.016 | 0.0013 |  |  |  |
| N#Cc1ccc(Nc2nc(N)nc(Oc3c(Br)cc(Br)cc3Br)n2)cc1 | 0.619 | 0.017 | 0.061 | 0.131 | 0.0054 |  |  |  |
| Cc1cc(C)c(C)c(Cc2nc(N)nc(Nc3ccc(C#N)cc3)n2)c1C | 0.367 | 0.085 | 1.19 | 6.7 | 0.0046 |  |  |  |
| N#Cc1ccc(Nc2nc(N)nc(Cc3c(Cl)cc(Cl)cc3Cl)n2)cc1 | 0.161 | 0.016 | 0.0062 | 0.221 | 0.0014 |  |  |  |
| CCCNc1nc(Cc2c(Cl)cccc2Cl)nc(Nc2ccc(C#N)cc2)n1 |  |  |  |  | 0.849 |  |  |  |
| CSc1nc(Cc2c(Cl)cccc2Cl)nc(Nc2ccc(C#N)cc2)n1 |  | 0.336 | 2.35 |  | 0.018 |  |  |  |
| N#Cc1ccc(Nc2nc(N)nc(Oc3c(Cl)cc(Cl)cc3Cl)n2)cc1 | 0.502 | 0.012 | 0.062 | 0.087 | 0.0024 |  |  |  |
| Cc1cc(C)cc(Cc2nc(N)nc(Nc3ccc(C#N)cc3)n2)c1 | > 100 | 5.08 | 6.37 | 77.9 | 0.091 |  |  |  |
| N#Cc1ccc(Nc2nc(Cc3c(Cl)cccc3Cl)nc(N3CCOCC3)n2)cc1 |  |  |  |  | 0.194 |  |  |  |
| N#Cc1ccc(Nc2nc(N)nc(Cc3c(Cl)ccc(Cl)c3Cl)n2)cc1 | 0.265 | 0.063 | 0.286 | 0.416 | 0.003 |  |  |  |
| Cc1cc(Br)cc(C)c1Nc1ncnc(Nc2ccc(C#N)cc2)n1 | 0.063 | 0.006 | 0.016 | 0.079 | 0.0006 | 3.16 | 0.126 |  |
| C[S+]([O-])c1nc(Cc2c(Cl)cccc2Cl)nc(Nc2ccc(C#N)cc2)n1 (configuration not stated) |  | 15.5 | 68.5 |  | 1.55 |  |  |  |
| CN(C)c1nc(Cc2c(Cl)cccc2Cl)nc(Nc2ccc(C#N)cc2)n1 |  | 4.69 | 13.4 | 32.2 | 0.166 |  |  |  |
| Cc1cc(C)c(Oc2ncnc(Nc3ccc(C#N)cc3)n2)c(C)c1 | 0.063 | 0.003 | 0.02 | 0.02 | 0.0006 | > 10 |  |  |
| Cc1cc(C#N)cc(C)c1Nc1ncnc(Nc2ccc(C#N)cc2)n1 | 0.05 | 0.008 | 0.05 | 0.251 | 0.001 | 2.51 | 0.126 |  |
| N#Cc1ccc(Nc2nc(N)nc(Cc3ccccc3)n2)cc1 |  | 8.47 | > 100 | 8.07 | 0.285 |  |  |  |
| Cc1cc(C)c(Cc2nc(N)nc(Nc3ccc(C#N)cc3)n2)c(C)c1 | 0.045 | 0.003 | 0.015 | 0.082 | 0.0008 |  |  |  |
| CONc1nc(Cc2c(Cl)cccc2Cl)nc(Nc2ccc(C#N)cc2)n1 | 0.804 | 0.082 | 0.0628 | 1.38 | 0.0062 |  |  |  |
